Experiments:
Hepatoma cell line HepG2 = assay: CellTiter-Blue cell proliferation and viability assay, HepG2; type: cell-based; conditions: Homo sapiens; HepG2, 1% FCS, 72 hours; read-out: IC50 of agent as single agent
Experimental: (§1) During proliferation assays, all cells were grown in medium containing 1% FCS. […] Treatment was started by the addition of 50 μl of a 2× concentrated drug solution to a final volume of 100 μl. […] After incubating for 72 hours at 37° C., 10 μl of a 1⁄2 dilution of CellTiter-Blue reagent was added to each well and the plates were returned to the incubator for an additional 4 hours. The fluorescence intensity from the CellTiter-Blue reagent is proportional to the number of viable cells and data were recorded (544Ex/590Em) using a POLARstar OMEGA microplate reader (BMG Labteck Sarl). A background control without cells was used as a blank. The positive control of the assay corresponds to the cell proliferation obtained in the absence of drug treatment (100% proliferation). Each sample was done in duplicate, the […] values were transferred to an excel file, the average and standard deviation of the duplicates were calculated and expressed as a percentage of the proliferation obtained in absence of treatment. The results presented are representative of a minimum of 3 experiments.

[1] = system: Hepatoma cell line PLC-PRF5; assay: CellTiter-Blue cell proliferation and viability assay, PLC-PRF5; type: cell-based; conditions: Homo sapiens, PLC-PRF-5; PLC-PRF5, 1% FCS, 72 hours; read-out: IC50 of agent as single agent
Experimental: as §1

[2] = clinically achievable concentration; read-out: Approximate Cmax measured in plasma; cited from earlier work
[3] = system: advanced Hepatocellular carcinoma (BCLC stage C); conditions: BCLC C patients, first line sorafenib; cited from earlier work

COc1cccc2c1C(=O)c1c(O)c3c(c(O)c1C2=O)C[C@@](O)(C(=O)CO)C[C@@H]3O[C@H]1C[C@H](N)[C@H](O)[C@H](C)O1 [DOX]
IC50 (Hepatoma cell line HepG2): 5 µM

Cc1ccc(NC(=O)c2ccc(CN3CCN(C)CC3)cc2)cc1Nc1nc(-c2cccnc2)cs1 [masitinib mesilate]
IC50 (Hepatoma cell line HepG2): > 5 µM | IC50 [1]: > 5 µM

CC[C@]1(O)C[C@H]2CN(CCc3c([nH]c4ccccc34)[C@@](C(=O)OC)(c3cc4c(cc3OC)N(C=O)[C@H]3[C@@](O)(C(=O)OC)[C@H](OC(C)=O)[C@]5(CC)C=CCN6CC[C@]43[C@@H]65)C2)C1 [VINC]
IC50 (Hepatoma cell line HepG2): 0.1 to 1 µM | IC50 [1]: 0.1 to 1 µM

CCc1c2c(nc3ccc(OC(=O)N4CCC(N5CCCCC5)CC4)cc13)-c1cc3c(c(=O)n1C2)COC(=O)[C@]3(O)CC [CPT-11]
IC50 (Hepatoma cell line HepG2): 100 µM | IC50 [1]: 100 µM | Cmax [2]: 1 to 10 µM

Nc1ccn([C@@H]2O[C@H](CO)[C@@H](O)C2(F)F)c(=O)n1 [GCB, 2′,2′,-dofluoro-2′,-deoxycytidine]
IC50 (Hepatoma cell line HepG2): > 100 µM

CNC(=O)c1cc(Oc2ccc(NC(=O)Nc3ccc(Cl)c(C(F)(F)F)c3)cc2)ccn1 [sorafenib]
median OS [3]: 9.5 months

COc1cc([C@@H]2c3cc4c(cc3[C@@H](O[C@@H]3O[C@@H]5CO[C@@H](C)O[C@H]5[C@H](O)[C@H]3O)[C@H]3COC(=O)[C@H]23)OCO4)cc(OC)c1O [VP-16]
IC50 (Hepatoma cell line HepG2): > 100 µM | IC50 [1]: 50 µM | Cmax [2]: ~34 µM

From patent US20160128999A1 (AB SCIENCE, priority 2014, published 2016)
